Molecular target: JAK2 (Homo sapiens (Human), UniProt O60674)
Assay: JAK2 Tyrosine Kinase Assay
Type: biochemical
Conditions: ATP 30 μM; JAK2 1 nM; 60 min at room temperature
Method: JAK2 Tyrosine Kinase Assay
The assays were performed in V-bottom 384-well plates. […] The reaction was initiated by the combination of JAK2 with substrates and test compounds. The reaction was incubated at room temperature for 60 min. and terminated by adding 45 μl of 35 mM EDTA to each sample. The reaction mixture was analyzed on the Caliper LABCHIP® 3000 by electrophoretic separation of the fluorescent substrate and phosphorylated product. […] Compounds were dissolved at 10 mM in dimethylsulfoxide (DMSO) and evaluated at eleven concentrations, each in duplicate. IC50 values were derived by non-linear regression analysis

Sequence of JAK2 (O60674 whole entry): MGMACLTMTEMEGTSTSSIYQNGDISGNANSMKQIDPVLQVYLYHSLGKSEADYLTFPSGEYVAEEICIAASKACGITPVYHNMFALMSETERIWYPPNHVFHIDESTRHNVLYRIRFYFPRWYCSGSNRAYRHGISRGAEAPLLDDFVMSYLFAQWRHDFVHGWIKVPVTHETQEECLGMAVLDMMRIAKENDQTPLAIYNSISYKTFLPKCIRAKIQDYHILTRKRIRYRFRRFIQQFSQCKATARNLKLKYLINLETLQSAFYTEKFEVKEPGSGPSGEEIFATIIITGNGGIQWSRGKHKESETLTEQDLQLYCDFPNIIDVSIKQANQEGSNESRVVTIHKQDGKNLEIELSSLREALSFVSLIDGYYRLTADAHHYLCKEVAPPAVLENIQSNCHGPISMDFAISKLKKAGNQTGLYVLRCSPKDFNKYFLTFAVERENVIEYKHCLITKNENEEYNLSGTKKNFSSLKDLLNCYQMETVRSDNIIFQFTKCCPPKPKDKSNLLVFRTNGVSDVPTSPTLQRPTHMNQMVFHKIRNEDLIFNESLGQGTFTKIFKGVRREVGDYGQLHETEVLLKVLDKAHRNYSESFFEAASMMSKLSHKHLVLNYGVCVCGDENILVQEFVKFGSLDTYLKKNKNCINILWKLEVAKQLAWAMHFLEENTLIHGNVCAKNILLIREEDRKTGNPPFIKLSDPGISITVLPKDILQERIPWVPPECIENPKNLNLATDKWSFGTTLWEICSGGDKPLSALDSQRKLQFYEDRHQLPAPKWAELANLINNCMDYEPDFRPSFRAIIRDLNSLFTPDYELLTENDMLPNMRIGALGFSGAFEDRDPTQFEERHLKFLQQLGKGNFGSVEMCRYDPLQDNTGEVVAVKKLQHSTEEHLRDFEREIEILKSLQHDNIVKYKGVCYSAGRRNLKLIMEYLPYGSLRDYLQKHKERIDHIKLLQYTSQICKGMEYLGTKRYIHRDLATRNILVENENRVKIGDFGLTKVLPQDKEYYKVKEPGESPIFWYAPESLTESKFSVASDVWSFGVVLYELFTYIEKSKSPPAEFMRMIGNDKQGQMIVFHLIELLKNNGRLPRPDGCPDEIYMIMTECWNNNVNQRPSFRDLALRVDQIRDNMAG

## NC(=O)c1cc(-c2cnc(N3CCOCC3)nc2)cc2c1[nH]c1cc(C(=O)N3CCOCC3)ccc12 [Example 579, 7-(4-morpholinylcarbonyl)-3-(2-(4-morpholinyl)-5-pyrimidinyl)-9H-carbazole-1-carboxamide]
  IC50: 108 nM

Reference: patent US8815840B2, “Carbazole and carboline kinase inhibitors” (Bristol-Myers Squibb Company, priority 2008, dated 2014)
